This note sets out measurements from US20230321083A1, “Inhibitors of GPR174 and Uses Thereof” (Omeros Corporation, priority 2016, published 2023).

Type in all cases: cell-based
The target in assay [1] is T1, ADBR2 (Homo sapiens, UniProt P07550).
T1 construct: host or cells: HEK293 or CHO cell lines (ATCC)
As to the kind of experiment: CRE-Luc reporter Gs signaling assay, control receptor ADBR2. How it is done:
(§1) Compounds were tested in the reporter system with increasing concentrations of GPR174-interacting compounds. GPR174 construct pCMV6-XL4-GPR174 or ADBR2, reporter of interest, pCRE-Luc or GL4.29 (3000 ng), and TK-renilla as an internal control (10 ng) with lipofectamine 2000 (60 ug) (Invitrogen, CA) according to the manufacturer's directions.
(§2) The DNA/lipofectamine 2000 mix (3000 μL) was incubated at room temperature for 30 minutes and then added into a 10 cm culture dish (Corning, NY) containing 70-90% confluent cultured cells, typically HEK293 or CHO cell lines (ATCC, VA), in 15 mL of media. The cells were further incubated for 4-6 hours at 37° C. and then media were removed and cells were detached with 2 mL trypsin (Life Technologies, CA). Media (26 mL) were added to the detached cells and 120 μL of transfected cells were transferred to each well on a 96-well plate. Increasing concentration of each compound in DMSO (1.2 μl) was added to the cells after plating into the 96-well plate. The cells were further incubated at 37° C. for various times. The media were removed and the cells lysed. Luciferase and renilla activities were measured with the Dual-luciferase assay system (Promega, WI) according to the manufacturer's directions. Typically, lysis buffer (25 μL) was added to the cells and incubated at room temperature for 20-30 minutes to allow for the cells to lyse. The lysate (10 μL) was measured for luciferase and renilla activity with LARII and Stop&Glo reagent (50 μL each) with a SpectraMax L (Molecular Devices, CA). Data were analyzed with either Excel (Microsoft, WA) or Prism 4.03 (GraphPad, CA).
(§3) ADBR2 is a GPCR, like GPR174, that activates the Gs signaling pathway.

Assay [2] has as its target T2, GPR174 (Homo sapiens, UniProt Q9BXC1). The experiment in a line: CRE-Luc reporter Gs signaling assay, cells transfected with GPR174. Further details: host or cells: HEK293 or CHO cell lines (ATCC). The conditions noted are these: for effect on Gs pathway in the presence of GPR174: CRE-Luc reporter. How it is done:
as §1, §2, §3
Target sequence in this assay (Q9BXC1 whole entry): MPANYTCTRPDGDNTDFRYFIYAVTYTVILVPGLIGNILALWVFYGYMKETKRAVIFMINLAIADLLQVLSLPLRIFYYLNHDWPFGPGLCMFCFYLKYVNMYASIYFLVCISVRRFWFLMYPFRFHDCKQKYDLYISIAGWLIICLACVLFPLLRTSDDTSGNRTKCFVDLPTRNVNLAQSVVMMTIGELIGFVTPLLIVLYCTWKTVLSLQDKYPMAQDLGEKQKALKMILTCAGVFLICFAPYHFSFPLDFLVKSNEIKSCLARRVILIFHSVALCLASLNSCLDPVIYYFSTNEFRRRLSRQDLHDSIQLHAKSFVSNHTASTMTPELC

The next assay relates to CHRM1. As to the kind of experiment: Cellular Redistribution Assay (CRA) against CHRM1. The settings on record: FIG. 5B. The text has this: (§4) The inventors used a CRA similar to that described in U.S. Pat. No. 7,309,576 and O'Dowd et al., J. Biomol. Screen. 12:175-85, 2007 to identify compounds that are capable of interacting with GPR174 using a library of approximately 370,000 chemical entities. Briefly described, the CRA assay described in U.S. Pat. No. 7,309,576 involves artificially inserting a NLS into the dopamine D1 receptor (DRD1), which allows the receptor to traffic from the cell membrane to the cell interior, and that the binding of antagonists to the receptor retained the receptor at the cell surface, while removal of the ligand allowed the receptor to continue to internalize from the cell surface. Both antagonists and agonists that selectively bound the receptor retained the receptor on the plasma membrane. GPR174 constructs were generated for use in a CRA-based compound screening assay. From this screen, the inventors initially identified compounds of formula I-VI, as described herein and included in TABLE 1.
The inventors also sought to validate that the compounds identified using the CRA are modulatory compounds. To this end, the above-described CRA was used to screen a library for compounds that interact with three control non-orphan receptors, and the results of this screen were compared to the results of screening the same library for compound that were identified using a Fluorometric Imaging Plate Reader (FLIPR) assay, a conventional technique commonly used to identify compounds interacting with non-orphan GPCRs signaling through Ca+. Three non-orphan GPCRs—Muscarinic acetylcholine receptor M1 (CHRM1), Adrenergic receptor alpha 1a (ADRA1a), and Neuropeptide S receptor (NPSR)—were screened against a 10,000-compound GPCR-focused library. Thirty interacting compound “hits” were identified using the CRA, and eighty-one hits were identified using the FLIPR for the CHRM1 receptor; 9 CRA hits and 29 FLIPR hits for the NPS receptor were identified; and 110 CRA hits and 110 FLIPR hits for ADRA1a.
In addition, the CRA can also provide the relative potencies of compounds against the target receptor.

Assay [3] addresses T2, GPR174. The experiment in a line: Cellular Redistribution Assay (CRA) against GPR174. The settings on record: FIG. 5A. Further details: fused on or other part: No tag or reporter is given.
Excerpt: One method for identifying compounds capable of modulating a receptor is using a cellular redistribution assay (“CRA”). Exemplary CRA methods are found in U.S. Pat. No. 7,309,576 issued to O'Dowd et al. and in O'Dowd et al., J. Biomol. Screen. 12:175-85, 2007. […] Incorporation of the NLS alters the cellular localization of the GPCR, such that the majority of the NLS-modified receptor is present in the cell interior. An NLS-modified GPCR, when interacting with a functionally active compound, is mostly localized on the cell surface. Thus, it becomes possible to identify receptor modulators without knowledge of the endogenous ligand or a surrogate ligand.
The inventors have identified a number of compounds that inhibit GPR174 using a CRA assay similar to that described in U.S. Pat. No. 7,309,576 and in O'Dowd et al., J. Biomol. Screen. 12:175-85, 2007. These compounds are described in detail below.
as §4
Target sequence in this assay (Q9BXC1 1-290 limits assumed): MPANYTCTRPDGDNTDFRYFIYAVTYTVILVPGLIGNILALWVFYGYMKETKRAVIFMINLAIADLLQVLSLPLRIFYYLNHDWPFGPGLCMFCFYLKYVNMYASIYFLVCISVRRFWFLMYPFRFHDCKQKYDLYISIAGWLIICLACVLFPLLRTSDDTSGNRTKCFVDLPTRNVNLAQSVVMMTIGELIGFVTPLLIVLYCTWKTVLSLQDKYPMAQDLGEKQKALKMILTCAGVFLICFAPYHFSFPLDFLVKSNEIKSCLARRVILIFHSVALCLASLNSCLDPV

The target in assay [4] is T2, GPR174. The experiment in a line: GloSensor assay, GPR174, with or without LysoPS. Further details: host or cells: HEK293 or CHO cell lines (ATCC). How it is done: (§5) In order to confirm that GPR174 interacting compound #4 is an antagonist of GPR174-mediated Gs signaling, a GloSensor assay was carried out with increasing concentrations of compound #4 in the presence or absence of a fixed concentration (1 μM) of the GPR174 agonist LysoPS as follows.
(§6) The GloSensor Assay was performed by transiently transfecting the GPR174 construct, pCMV6-XL4-GPR174 or ADBR2, pGlo22 (300 ng) (Promega) with lipofectamine 2000 (60 μg) (Invitrogen, CA) according to the manufacturer's directions. The DNA/lipofectamine 2000 mix (3000 μL) was incubated at room temperature for 30 minutes and then added into a 10 cm culture dish (Corning, NY) containing 70-90% confluent cultured cells, typically HEK293 or CHO cell lines (ATCC, VA), in 15 mL of media. […] The cells were then incubated at room temperature for 2 hours and the cell plates were pre-read with a SpectraMax L (Molecular Devices, CA). After the pre-read, increasing concentrations of each compound in DMSO (1.0 μl) was added to the cells. The cell plates containing the compound were read immediately after the compound was added and at various times up to 30 minutes after the addition of the compound with a SpectraMax L (Molecular Devices, CA). Data were analyzed with either Excel (Microsoft, WA) or Prism 4.03 (GraphPad, CA).
Target sequence in this assay (Q9BXC1 whole entry, species assumed): as the sequence (Q9BXC1 whole entry) above

In assay [5] the target is T1, ADBR2. As to the kind of experiment: GloSensor assay, ADBR2 control. On the procedure:
as §5, §6

As for `CC(=O)N1CCN(c2cc(N3CCCCC3)c(F)cc2[N+](=O)[O-])CC1` [Compound 2], the “effect on Gs pathway in the presence of ADBR2” value (“effect on Gs pathway … of ADBR2” below) at ADBR2 [1] is given as “did not inhibit the Gs pathway”. In addition, the “effect on Gs pathway in the presence of GPR174” value (shortened to “effect on Gs pathway … of GPR174”) at GPR174 [2] is “inhibited the Gs pathway”. In the assay with CHRM1, the “activity in CRA against CHRM1” value was “do not show any activity against CHRM1”. Further, the “dose-response in CRA against GPR174” value at GPR174 [3] is given as “show a dose-response curve against GPR174”.

For `CCCC(=O)c1ccc(N2CCN(S(=O)(=O)c3ccc(C)cc3)CC2)c(F)c1` [Compound 4], the “modulation of Gs pathway in the presence of GPR174 (GloSensor)” value on GPR174 [4] (compound alone) is reported as “does not modulate the Gs pathway”. Moreover, the “competition with GPR174 agonist LysoPS (GloSensor)” value at GPR174 [4] (fixed 1 μM LysoPS) is reported as “does compete with the GPR174 agonist LysoPS”. The “effect on Gs pathway … of ADBR2” value at ADBR2 [1] is “did not modulate the Gs pathway”. Also, on GPR174 [2], the “Human GPR174 CRE Activity: nature of compound” value is listed as “Antagonist” and the “effect on Gs pathway … of GPR174” value was “did not modulate the Gs pathway”. Moreover, the “nature of compound in GPR174 signaling assay” value at GPR174 [2] (human GPR174 with pCRE-Luc) is recorded as “GPR174 antagonist”. The “activity in CRA against CHRM1” value in the assay with CHRM1 is given as “do not show any activity against CHRM1”. Besides, on ADBR2 [5], the “modulation of Gs signaling in the presence of ADBR (GloSensor)” value is reported as “neither compound #4 nor LysoPS modulate Gs signaling”. The “dose-response in CRA against GPR174” value at GPR174 [3] is “show a dose-response curve against GPR174”.

Regarding “lysophosphatidylserine [LysoPS, reference compound]”, the “modulation of Gs signaling in the presence of ADBR (GloSensor)” value on ADBR2 [5] is “neither compound #4 nor LysoPS modulate Gs signaling”.

As for `CCOC(=O)N1CCN(c2cc(N3CCC(C)CC3)c(F)cc2[N+](=O)[O-])CC1` [Compound 1], the “effect on Gs pathway … of ADBR2” value at ADBR2 [1] is reported as “did not inhibit the Gs pathway”. On GPR174 [2], the “effect on Gs pathway … of GPR174” value is reported as “inhibited the Gs pathway”. In addition, the “activity in CRA against CHRM1” value in the assay on CHRM1 is “do not show any activity against CHRM1”. Besides, the “dose-response in CRA against GPR174” value at GPR174 [3] is given as “show a dose-response curve against GPR174”.
